Results as given in PubChem BioAssay (NCI).
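Dose response: 5 concentrations. Exposure: 48 h. Format: 96-well plates. Endpoint: linear interpolation; highest concentration if not reached. TGI marks complete inhibition of growth.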

Legend:
Experiment in all cases: growth of human tumour cells (NCI), 48 h
A498 renal = tested on: A498 renal
A549 NSCLC = tested on: A549 NSCLC
ACHN renal = tested on: ACHN renal
CAKI-1 renal = tested on: CAKI-1 renal
CCRF-CEM leukemia = tested on: CCRF-CEM leukemia
COLO 205 colon = tested on: COLO 205 colon
DLD-1 colon = tested on: DLD-1 colon
DMS 114 small cell lung = tested on: DMS 114 small cell lung
DMS 273 small cell lung = tested on: DMS 273 small cell lung
EKVX NSCLC = tested on: EKVX NSCLC
HCC-2998 colon = tested on: HCC-2998 colon
HCT-116 colon = tested on: HCT-116 colon
HCT-15 colon = tested on: HCT-15 colon
HL-60(TB) leukemia = tested on: HL-60(TB) leukemia
HOP-18 NSCLC = tested on: HOP-18 NSCLC
HOP-62 NSCLC = tested on: HOP-62 NSCLC
HOP-92 NSCLC = tested on: HOP-92 NSCLC
HT29 colon = tested on: HT29 colon
IGROV1 ovarian = tested on: IGROV1 ovarian
K-562 leukemia = tested on: K-562 leukemia
KM12 colon = tested on: KM12 colon
KM20L2 colon = tested on: KM20L2 colon
LXFL 529 NSCLC = tested on: LXFL 529 NSCLC
M14 melanoma = tested on: M14 melanoma
M19-MEL melanoma = tested on: M19-MEL melanoma
MALME-3M melanoma = tested on: MALME-3M melanoma
MOLT-4 leukemia = tested on: MOLT-4 leukemia
NCI-H226 lung = tested on: NCI-H226 lung
NCI-H23 lung = tested on: NCI-H23 lung
NCI-H460 lung = tested on: NCI-H460 lung
NCI-H522 lung = tested on: NCI-H522 lung
OVCAR-3 ovarian = tested on: OVCAR-3 ovarian
OVCAR-4 ovarian = tested on: OVCAR-4 ovarian
OVCAR-5 ovarian = tested on: OVCAR-5 ovarian
OVCAR-8 ovarian = tested on: OVCAR-8 ovarian
RPMI-8226 leukemia = tested on: RPMI-8226 leukemia
SF-268 CNS = tested on: SF-268 CNS
SF-295 CNS = tested on: SF-295 CNS
SF-539 CNS = tested on: SF-539 CNS
SK-MEL-2 melanoma = tested on: SK-MEL-2 melanoma
SK-MEL-28 melanoma = tested on: SK-MEL-28 melanoma
SK-MEL-5 melanoma = tested on: SK-MEL-5 melanoma
SK-OV-3 ovarian = tested on: SK-OV-3 ovarian
SN12C renal = tested on: SN12C renal
SNB-19 CNS = tested on: SNB-19 CNS
SNB-75 CNS = tested on: SNB-75 CNS
SNB-78 CNS = tested on: SNB-78 CNS
SR leukemia = tested on: SR leukemia
SW-620 colon = tested on: SW-620 colon
TK-10 renal = tested on: TK-10 renal
U251 CNS = tested on: U251 CNS
UACC-257 melanoma = tested on: UACC-257 melanoma
UACC-62 melanoma = tested on: UACC-62 melanoma
UO-31 renal = tested on: UO-31 renal
XF 498 CNS = tested on: XF 498 CNS
786-0 renal = tested on: 786-0 renal
LOX IMVI melanoma = tested on: LOX IMVI melanoma
RXF 393 renal = tested on: RXF 393 renal
RXF-631 renal = tested on: RXF-631 renal

`CCOC(=O)C(=O)Nc1cccc(C)c1C` was tested, and the TGI (A498 renal) was greater than 100 µM, the TGI (A549 NSCLC) was greater than 100 µM and the TGI (ACHN renal) was greater than 100 µM. For the same compound, the TGI (CAKI-1 renal) was greater than 100 µM, the TGI (CCRF-CEM leukemia) was greater than 100 µM and the TGI (COLO 205 colon) was greater than 100 µM. For the same compound, the TGI (DLD-1 colon) was greater than 100 µM, the TGI (DMS 114 small cell lung) was greater than 100 µM and the TGI (DMS 273 small cell lung) was greater than 100 µM. For the same compound, the TGI (EKVX NSCLC) was greater than 100 µM, the TGI (HCC-2998 colon) was greater than 100 µM and the TGI (HCT-116 colon) was greater than 100 µM. For the same compound, the TGI (HCT-15 colon) was greater than 100 µM, the TGI (HL-60(TB) leukemia) was greater than 100 µM and the TGI (HOP-18 NSCLC) was greater than 100 µM. The TGI (HOP-62 NSCLC) was greater than 100 µM, the TGI (HOP-92 NSCLC) was greater than 100 µM and the TGI (HT29 colon) was greater than 100 µM. It also gave a TGI (IGROV1 ovarian) greater than 100 µM, a TGI (K-562 leukemia) greater than 100 µM and a TGI (KM12 colon) greater than 100 µM. It also gave a TGI (KM20L2 colon) greater than 100 µM, a TGI (LXFL 529 NSCLC) greater than 100 µM and a TGI (M14 melanoma) greater than 100 µM. The TGI (M19-MEL melanoma) was greater than 100 µM, the TGI (MALME-3M melanoma) was greater than 100 µM and the TGI (MOLT-4 leukemia) was greater than 100 µM. The TGI (NCI-H226 lung) was greater than 100 µM, the TGI (NCI-H23 lung) was greater than 100 µM and the TGI (NCI-H460 lung) was greater than 100 µM. For the same compound, the TGI (NCI-H522 lung) was greater than 100 µM, the TGI (OVCAR-3 ovarian) was greater than 100 µM and the TGI (OVCAR-4 ovarian) was greater than 100 µM. It also gave a TGI (OVCAR-5 ovarian) greater than 100 µM, a TGI (OVCAR-8 ovarian) greater than 100 µM and a TGI (RPMI-8226 leukemia) greater than 100 µM. For the same compound, the TGI (SF-268 CNS) was greater than 100 µM, the TGI (SF-295 CNS) was greater than 100 µM and the TGI (SF-539 CNS) was greater than 100 µM. It also gave a TGI (SK-MEL-2 melanoma) greater than 100 µM, a TGI (SK-MEL-28 melanoma) greater than 100 µM and a TGI (SK-MEL-5 melanoma) greater than 100 µM. The TGI (SK-OV-3 ovarian) was greater than 100 µM, the TGI (SN12C renal) was greater than 100 µM and the TGI (SNB-19 CNS) was greater than 100 µM. For the same compound, the TGI (SNB-75 CNS) was greater than 100 µM, the TGI (SNB-78 CNS) was greater than 100 µM and the TGI (SR leukemia) was greater than 100 µM. It also gave a TGI (SW-620 colon) greater than 100 µM, a TGI (TK-10 renal) greater than 100 µM and a TGI (U251 CNS) greater than 100 µM. The TGI (UACC-257 melanoma) was greater than 100 µM, the TGI (UACC-62 melanoma) was greater than 100 µM and the TGI (UO-31 renal) was greater than 100 µM. It also gave a TGI (XF 498 CNS) greater than 100 µM.

Work on `NC(=O)N/N=C(\CCC(=O)N(Cc1ccccc1)Cc1ccccc1)CC(=O)c1ccc(F)cc1` yielded a TGI (786-0 renal) of 87.4 µM, a TGI (A549 NSCLC) greater than 100 µM and a TGI (ACHN renal) greater than 100 µM. It also gave a TGI (CAKI-1 renal) greater than 100 µM, a TGI (CCRF-CEM leukemia) greater than 100 µM and a TGI (COLO 205 colon) greater than 100 µM. It also gave a TGI (DLD-1 colon) greater than 100 µM, a TGI (DMS 114 small cell lung) greater than 100 µM and a TGI (EKVX NSCLC) greater than 100 µM. The TGI (HCC-2998 colon) was greater than 100 µM, the TGI (HCT-116 colon) was greater than 100 µM and the TGI (HCT-15 colon) was greater than 100 µM. The TGI (HL-60(TB) leukemia) was greater than 100 µM, the TGI (HOP-18 NSCLC) was greater than 100 µM and the TGI (HOP-62 NSCLC) was greater than 100 µM. For the same compound, the TGI (HT29 colon) was greater than 100 µM, the TGI (IGROV1 ovarian) was greater than 100 µM and the TGI (K-562 leukemia) was greater than 100 µM. It also gave a TGI (KM12 colon) greater than 100 µM, a TGI (KM20L2 colon) greater than 100 µM and a TGI (LOX IMVI melanoma) greater than 100 µM. It also gave a TGI (LXFL 529 NSCLC) greater than 100 µM, a TGI (M14 melanoma) greater than 100 µM and a TGI (M19-MEL melanoma) greater than 100 µM. For the same compound, the TGI (MALME-3M melanoma) was greater than 100 µM, the TGI (MOLT-4 leukemia) was greater than 100 µM and the TGI (NCI-H226 lung) was greater than 100 µM. For the same compound, the TGI (NCI-H23 lung) was greater than 100 µM, the TGI (NCI-H460 lung) was greater than 100 µM and the TGI (OVCAR-3 ovarian) was greater than 100 µM. For the same compound, the TGI (OVCAR-4 ovarian) was greater than 100 µM, the TGI (OVCAR-5 ovarian) was greater than 100 µM and the TGI (OVCAR-8 ovarian) was greater than 100 µM. For the same compound, the TGI (RXF 393 renal) was greater than 100 µM, the TGI (RXF-631 renal) was greater than 100 µM and the TGI (SF-268 CNS) was greater than 100 µM. For the same compound, the TGI (SF-295 CNS) was greater than 100 µM, the TGI (SF-539 CNS) was 62.4 µM and the TGI (SK-MEL-2 melanoma) was greater than 100 µM. For the same compound, the TGI (SK-MEL-28 melanoma) was greater than 100 µM, the TGI (SK-MEL-5 melanoma) was greater than 100 µM and the TGI (SK-OV-3 ovarian) was greater than 100 µM. For the same compound, the TGI (SN12C renal) was greater than 100 µM, the TGI (SNB-19 CNS) was greater than 100 µM and the TGI (SNB-78 CNS) was greater than 100 µM. It also gave a TGI (SR leukemia) greater than 100 µM, a TGI (SW-620 colon) greater than 100 µM and a TGI (TK-10 renal) greater than 100 µM. For the same compound, the TGI (U251 CNS) was greater than 100 µM, the TGI (UACC-257 melanoma) was greater than 100 µM and the TGI (UACC-62 melanoma) was greater than 100 µM. The TGI (UO-31 renal) was greater than 100 µM.
